Experiments:
K562 [1] = assay: Cytotoxicity against human K562 cells assessed as cell growth inhibition measured after 72 hrs by MTT assay; format: functional, cell-based; conditions: K562, 72 h
MDA-MB-231 = assay: Cytotoxicity against human MDA-MB-231 cells assessed as cell growth inhibition measured after 72 hrs by MTT assay; format: functional, cell-based; conditions: MDA-MB-231, 72 h
HMEC-1 [2] = assay: Antiproliferative activity against human HMEC-1 cells assessed as reduction in cell viability at IC50 measured after 72 hrs by trypan blue dye based assay relative to control; format: toxicity; conditions: hmec-1, 72 h
HepG2 = assay: Cytotoxicity against human HepG2 cells assessed as cell growth inhibition measured after 72 hrs by MTT assay; format: functional, cell-based; conditions: HepG2, 72 h
HCT-116 [3] = assay: Antiproliferative activity against human HCT-116 cells assessed as reduction in cell viability at IC50 measured after 72 hrs by trypan blue dye based assay relative to control; format: functional
K562 [4] = assay: Induction of apoptosis in human K562 cells assessed as increase in caspase-3/7 activity at IC50 incubated for 24 hrs by Glo assay relative to control; format: functional
K562 [5] = assay: Induction of apoptosis in human K562 cells assessed as late apoptotic cells at IC50 incubated for 72 hrs by Annexin V-FITC/PI staining based flow cytometric analysis (reference value: […]); format: functional
HMEC-1 [6] = assay: Induction of apoptosis in human HMEC-1 cells assessed as late apoptotic cells at IC50 incubated for 72 hrs by Annexin V-FITC/PI staining based flow cytometric analysis (reference value: 4.7 %); format: functional
HCT-116 [7] = assay: Cytotoxicity against human HCT-116 cells assessed as cell growth inhibition measured after 72 hrs by MTT assay; format: functional, cell-based; conditions: HCT-116, 72 h
[8] = Selectivity index, ratio of IC50 for cytotoxicity against human HMEC-1 cells to IC50 for cytotoxicity against human SW620 cells
D(2) dopamine receptor = D(2) dopamine receptor (Rattus norvegicus, UniProt P61169); assay: Antagonist activity at Sprague-Dawley rat striatum membrane D2 receptor assessed as inhibition of dopamine stimulated [35S]GTPgammaS binding measured after 90 mins by scintillation counter analysis; format: functional, cell membranes
[9] = Selectivity index, ratio of IC50 for cytotoxicity against human HMEC-1 cells to IC50 for cytotoxicity against human K562 cells; format: toxicity, cell-based; conditions: HMEC-1 cells and K562 cells, read-out: Ratio IC50
[10] = Selectivity index, ratio of IC50 for cytotoxicity against human HMEC-1 cells to IC50 for cytotoxicity against human PC-3 cells; format: toxicity, cell-based; conditions: HMEC-1 cells and PC-3 cells, read-out: Ratio IC50
HCT-116 [11] = assay: Antiproliferative activity against human HCT-116 cells assessed as reduction in cell number at IC50 measured after 72 hrs by trypan blue dye based assay relative to control; format: functional; parameters: scale not given: the % may be the effect or the level left
[12] = Cytotoxicity against human HMEC-1 cells assessed as cell growth inhibition measured after 72 hrs by MTT assay; format: toxicity, cell-based
A549 = assay: Cytotoxicity against human A549 cells assessed as cell growth inhibition measured after 72 hrs by MTT assay; format: functional, cell-based; conditions: A549, 72 h
[13] = target: T1, 5-hydroxytryptamine receptor 1A (Rattus norvegicus, UniProt P19327); assay: Agonist activity at Sprague-Dawley rat hippocampal membrane 5-HT1A receptor assessed as stimulation of [35S]GTPgammaS binding measured after 90 mins by scintillation counter analysis; format: functional, cell membranes, Hippocampus
T1 sequence (P19327 whole entry): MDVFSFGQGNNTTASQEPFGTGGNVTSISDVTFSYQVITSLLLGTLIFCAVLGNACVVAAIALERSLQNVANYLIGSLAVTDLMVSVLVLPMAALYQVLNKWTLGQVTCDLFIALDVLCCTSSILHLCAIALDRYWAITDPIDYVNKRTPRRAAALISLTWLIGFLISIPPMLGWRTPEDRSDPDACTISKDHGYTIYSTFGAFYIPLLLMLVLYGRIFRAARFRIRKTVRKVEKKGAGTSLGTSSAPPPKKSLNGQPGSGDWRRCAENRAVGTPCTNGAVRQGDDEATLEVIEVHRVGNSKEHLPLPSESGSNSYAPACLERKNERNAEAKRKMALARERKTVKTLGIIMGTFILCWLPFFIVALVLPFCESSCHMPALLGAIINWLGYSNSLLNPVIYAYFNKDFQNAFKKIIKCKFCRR

Histamine H1 receptor = Histamine H1 receptor (Rattus norvegicus, UniProt P31390); assay: Displacement of [3H]pyrilamine from Sprague-Dawley rat H1 receptor assessed as inhibition constant measured after 30 mins by competitive binding assay
HCT-116 [14] = assay: Induction of apoptosis in human HCT-116 cells assessed as viable cells at IC50 incubated for 72 hrs by Annexin V-FITC/PI staining based flow cytometric analysis (reference value: 90.5 %); format: functional
HCT-116 [15] = assay: Induction of apoptosis in human HCT-116 cells assessed as necrotic cells at IC50 incubated for 72 hrs by Annexin V-FITC/PI staining based flow cytometric analysis (reference value: 0.1 %); format: functional
[16] = Selectivity index, ratio of IC50 for cytotoxicity against human HMEC-1 cells to IC50 for cytotoxicity against human A549 cells; format: toxicity, cell-based; conditions: HMEC-1 cells and A549 cells, read-out: Ratio IC50
HMEC-1 [17] = assay: Induction of apoptosis in human HMEC-1 cells assessed as viable cells at IC50 incubated for 72 hrs by Annexin V-FITC/PI staining based flow cytometric analysis (reference value: 90.6 %); format: functional
[18] = Selectivity index, ratio of IC50 for cytotoxicity against human HMEC-1 cells to IC50 for cytotoxicity against human SW480 cells
SW480 = assay: Cytotoxicity against human SW480 cells assessed as cell growth inhibition measured after 72 hrs by MTT assay; format: functional, cell-based; conditions: SW480, 72 h
SW-620 = assay: Cytotoxicity against human SW620 cells assessed as cell growth inhibition measured after 72 hrs by MTT assay; format: functional, cell-based; conditions: SW-620, 72 h
[19] = Selectivity index, ratio of IC50 for cytotoxicity against human HMEC-1 cells to IC50 for cytotoxicity against human HepG2 cells; format: toxicity, cell-based; conditions: HMEC-1 cells and HepG2 cells, read-out: Ratio IC50
HCT-116 [20] = assay: Induction of apoptosis in human HCT-116 cells assessed as early apoptotic cells at IC50 incubated for 72 hrs by Annexin V-FITC/PI staining based flow cytometric analysis (reference value: 7.8 %); format: functional
K562 [21] = assay: Antiproliferative activity against human K562 cells assessed as reduction in cell number at IC50 measured after 72 hrs by trypan blue dye based assay relative to control; format: functional; parameters: scale not given: the % may be the effect or the level left
HMEC-1 [22] = assay: Induction of apoptosis in human HMEC-1 cells assessed as early apoptotic cells at IC50 incubated for 72 hrs by Annexin V-FITC/PI staining based flow cytometric analysis (reference value: 2.4 %); format: functional
K562 [23] = assay: Induction of apoptosis in human K562 cells assessed as viable cells at IC50 incubated for 72 hrs by Annexin V-FITC/PI staining based flow cytometric analysis (reference value: 89 %); format: functional
[24] = Selectivity index, ratio of IC50 for cytotoxicity against human HMEC-1 cells to IC50 for cytotoxicity against human MDA-MB-231 cells; format: toxicity, cell-based; conditions: HMEC-1 cells and MDA-MB-231 cells, read-out: Ratio IC50
HCT-116 [25] = assay: Induction of apoptosis in human HCT-116 cells assessed as late apoptotic cells at IC50 incubated for 72 hrs by Annexin V-FITC/PI staining based flow cytometric analysis (reference value: 1.6 %); format: functional

Chain of Histamine H1 receptor (P31390 whole entry): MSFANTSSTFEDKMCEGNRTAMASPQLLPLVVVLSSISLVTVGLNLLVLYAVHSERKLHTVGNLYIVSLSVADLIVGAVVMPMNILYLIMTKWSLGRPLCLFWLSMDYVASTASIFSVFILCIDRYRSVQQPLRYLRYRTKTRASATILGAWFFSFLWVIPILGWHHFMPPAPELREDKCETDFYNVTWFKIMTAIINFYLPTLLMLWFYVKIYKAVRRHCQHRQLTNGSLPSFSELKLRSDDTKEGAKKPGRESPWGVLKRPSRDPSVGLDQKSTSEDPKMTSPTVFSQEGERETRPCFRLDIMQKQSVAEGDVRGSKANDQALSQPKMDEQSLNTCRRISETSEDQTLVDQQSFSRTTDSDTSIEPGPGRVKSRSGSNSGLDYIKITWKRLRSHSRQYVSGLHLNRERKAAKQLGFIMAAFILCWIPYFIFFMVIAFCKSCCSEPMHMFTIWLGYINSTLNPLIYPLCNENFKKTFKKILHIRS
Chain of D(2) dopamine receptor (P61169 whole entry): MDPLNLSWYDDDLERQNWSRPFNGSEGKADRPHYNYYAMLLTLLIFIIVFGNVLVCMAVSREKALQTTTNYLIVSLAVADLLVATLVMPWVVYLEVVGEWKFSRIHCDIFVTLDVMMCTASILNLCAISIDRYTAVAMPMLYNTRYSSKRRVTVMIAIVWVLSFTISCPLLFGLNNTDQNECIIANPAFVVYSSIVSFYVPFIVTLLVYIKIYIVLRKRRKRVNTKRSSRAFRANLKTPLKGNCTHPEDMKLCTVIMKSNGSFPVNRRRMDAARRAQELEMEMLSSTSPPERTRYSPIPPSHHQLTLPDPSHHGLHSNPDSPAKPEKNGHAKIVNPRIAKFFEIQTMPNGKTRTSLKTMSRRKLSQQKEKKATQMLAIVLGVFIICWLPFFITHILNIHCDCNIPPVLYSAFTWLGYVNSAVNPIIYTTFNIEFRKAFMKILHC

Row | IC50 (D(2) dopamine receptor) | EC50 [13] | Ki (Histamine H1 receptor) | Structure (SMILES) | IC50 (K562 [1]) | IC50 (MDA-MB-231) | Activity (HMEC-1 [2]) | IC50 (HepG2) | Activity (HCT-116 [3]) | Activity (K562 [4]) | Activity (K562 [5]) | Activity (HMEC-1 [6]) | IC50 (HCT-116 [7]) | Ratio IC50 [8] | selectivity ratio [9] | selectivity ratio [10] | Activity (HCT-116 [11]) | IC50 at 72 h [12] | IC50 (A549) | Activity (HCT-116 [14]) | Activity (HCT-116 [15]) | further results
1 | 11.6 µM | 0.006 µM | 0.3 µM | COc1ccccc1N1CCN(CCCCN2C(=O)C3C(C2=O)C2(C)C(=O)C3(C)C(c3ccccc3)=C2c2ccccc2)CC1 (stereo unspecified) | 6.76 µM | 29.3 µM | Non-Toxic | 15.7 µM | 34% | 22% | 51.3% | 1.8% | 8.89 µM | 6.3 | 4.47 | 2.07 | 44% | 30.2 µM | 16.2 µM | 79.2% | 0.1% | selectivity ratio [16]: 1.86; Activity (HMEC-1 [17]): 94.3%; Ratio IC50 [18]: 4.08; IC50 (SW480): 7.41 µM; IC50 (SW-620): 4.8 µM; selectivity ratio [19]: 1.93; Activity (HCT-116 [20]): 18.4%; Activity (K562 [21]): 88%; Activity (HMEC-1 [22]): 2.2%; Activity (K562 [23]): 22.4%; selectivity ratio [24]: 1.03; Activity (HCT-116 [25]): 2.3%
2 | 8.4 µM | 0.1 µM | 0.03 µM | CC12C(=O)C(C)(C(c3ccccc3)=C1c1ccccc1)C1C(=O)N(CCCCN3CCN(c4ccccc4Cl)CC3)C(=O)C12 (stereo unspecified) | 4.01 µM | 24.3 µM | Non-Toxic | 12.9 µM | 30% | 22% | 19.4% | 4.7% | 3.58 µM | 3.33 | 5.15 | 2.63 | 29% | 20.6 µM | 25 µM | 58% | 0.6% | selectivity ratio [16]: 0.82; Activity (HMEC-1 [17]): 86.7%; Ratio IC50 [18]: 3.9; IC50 (SW480): 5.29 µM; IC50 (SW-620): 6.2 µM; selectivity ratio [19]: 1.6; Activity (HCT-116 [20]): 36.4%; Activity (K562 [21]): 61%; Activity (HMEC-1 [22]): 3.5%; Activity (K562 [23]): 67%; selectivity ratio [24]: 0.85; Activity (HCT-116 [25]): 5%
3 | 22.6 µM | 1.5 µM | 0.006 µM | CC12C(=O)C(C)(C(c3ccccc3)=C1c1ccccc1)C1C(=O)N(CCCCN3CCN(c4ncccn4)CC3)C(=O)C12 (stereo unspecified) | 8.08 µM | 18.7 µM | Non-Toxic | 16.7 µM | 36% | 22% | 11.7% | 2.4% | 4.63 µM | 2.26 | 3.78 | 1.49 | 49% | 30.5 µM | 18.1 µM | 37.4% | 0.3% | selectivity ratio [16]: 1.69; Activity (HMEC-1 [17]): 91.7%; Ratio IC50 [18]: 1.93; IC50 (SW480): 15.8 µM; IC50 (SW-620): 13.5 µM; selectivity ratio [19]: 1.83; Activity (HCT-116 [20]): 58.2%; Activity (K562 [21]): 64%; Activity (HMEC-1 [22]): 4.6%; Activity (K562 [23]): 77.3%; selectivity ratio [24]: 1.64; Activity (HCT-116 [25]): 4.1%
